According to patent US4238473A, “Artificial oligosaccharide antigenic determinants” (priority 1975, dated 1980):
Each block holds one molecule with its values, some of them ahead of it.

Tests used:
[1] = system: antiserum raised against [Le^a -O(CH2)8 CONH]30 -BSA; assay: Maximum precipitation of anti-[Le^a -O(CH2)8 CONH]30 -BSA antiserum against test antigen; format: binding, rabbit; settings: as test antigen against antiserum raised to [Le^a -O(CH2)8 CONH]30 -BSA
Protocol: The above antiserum had been raised against the artificial Lewis-a antigen [Le^a -O(CH2)8 CONH]30 -BSA. The maximum precipitation against [Le^a -O(CH2)8 CONH]28 -HSA as test antigen was 277 μg of antibody per 50 μl of antiserum.

[2] = system: antibodies raised to this conjugate (antigen 12); assay: Hapten inhibition of precipitation of anti-12 sera with (β-D-gal-O(CH2)8 CONH)23 -HSA; format: binding, rabbit; settings: (β-D-gal-O(CH2)8 CONH)23 -HSA as the precipitating antigen; for IC50: read-out: concentration giving 50% inhibition of precipitation
[3] = system: Rabbit antisera raised to Le^a -BSA antigens; assay: Immunodiffusion of rabbit antisera raised to Le^a -BSA antigens; format: binding
[4] = system: antisera raised to 13; assay: Hapten inhibition of precipitation between 13 and antisera raised to 13; format: binding, rabbit
Protocol: (§1) This antigen was prepared from the hydrazide derivative of compound 2 using the acyl azide coupling method described in example XII. […] Proof of the hapten specific nature of the response comes from hapten specific inhibition of precipitation between 13 and antisera raised to 13.

[5] = system: antibodies raised to this conjugate (antigen 12); format: binding, rabbit; settings: 50 μl of crude sera raised to antigen 12
From the text: (§2) For rabbits the immunization protocol was that described by Martineau^2 and for goats that of Marcus and Grollman^3. The course of the immunization was followed by quantitative precipitin tests on samples of blood withdrawn at various times. The procedures used were all standard to the field of immunology^4.

[6] = system: human Lewis-a blood group substance; assay: Goat immunization, cross-reaction of antisera with natural substance; format: in vivo; settings: goat immunized with the antigen
From the text: (§3) To further explore the extent of cross reactions between antibodies raised to the artificial Le^a antigens and human Lewis-a blood group substance and to obtain larger amounts of antisera, a goat was immunized with [Le^a -O(CH2)8 CONH]30 -BSA.

[7] = system: Lewis (a-) red cells; assay: Agglutination of red cells by goat antisera to artificial Le^a antigen; format: cell-based, human; settings: goat antisera after appropriate treatment
From the text: as §3

[8] = system: human blood group Lewis-(a+b-) red cells; assay: as above; format: cell-based; settings: goat antisera after appropriate treatment
From the text: as §3

[9] = system: rabbits; assay: Immunization of rabbits with 13, specificity of sera; format: in vivo, rabbit; settings: rabbits immunized with 13
Protocol: as §1

[10] = system: San Juan rabbits; settings: six San Juan rabbits, antigen in Freund's complete adjuvant
From the text: as §2

[11] = at the concentration that methyl β-D-glcNAc was effective

Molecule: [Le^a -O(CH2)8 CONH]28 -HSA
maximum precipitation [1]: 277 μg of antibody per 50 μl of antiserum

IC50 [2]: 70 mM
Molecule: OC[C@H]1O[C@@H](O[C@H]2[C@H](O)[C@@H](O)C(O)O[C@@H]2CO)[C@H](O)[C@@H](O)[C@H]1O (stereo partly drawn) [lactose]

IC50 [2]: 33 mM
Molecule: CO[C@H]1O[C@H](CO)[C@H](O)[C@H](O)[C@H]1O [methyl α-D-galactopyranoside]

Molecule: polylysine
line of precipitation on immunodiffusion [3]: No line of precipitation

Molecule: CO[C@@H]1O[C@H](CO)[C@@H](O)[C@H](O)[C@H]1NC(C)=O [methyl β-D-glcNAc]
inhibition of precipitation ([4]; precipitation between 13 and antisera raised to 13): 60-80%

Molecule: (α-D-gal-O(CH2)8 CONH)17 -BSA
maximum amount of antibody precipitated [5]: 87 µg

IC50 [2]: 6.6 mM
Molecule: OC[C@H]1OC(O)[C@H](O)[C@@H](O)[C@H]1O (stereo partly drawn) [galactose]

Molecule: [Le^a -O(CH2)8 CONH]30 -BSA
cross-reaction of antisera with human Lewis-a blood group substance [6]: showed the expected cross-reaction | agglutination by the antisera [7]: did not agglutinate | agglutination by the antisera [8]: effectively agglutinated

Molecule: dextran
line of precipitation on immunodiffusion [3]: No line of precipitation

Molecule: (β-D-glcNAc-O(CH2)8 CONH)25 -BSA [antigen 13]
specificity of sera from immunized rabbits [9]: high specificity for antigens containing the β-D-glcNAc hapten

Molecule: CO[C@@H]1O[C@H](CO)[C@H](O)[C@H](O)[C@H]1NC(C)=O [methyl β-D-galNAc]
inhibition of precipitation [4, 11]: virtually no inhibition

Molecule: CO[C@@H]1O[C@H](CO)[C@@H](O)[C@H](O)[C@H]1O [methyl β-D-glucopyranoside]
inhibition of precipitation [2]: approximately no inhibition | inhibition of precipitation [4, 11]: virtually no inhibition

IC50 [2]: 0.83 mM
Molecule: CO[C@@H]1O[C@H](CO)[C@H](O)[C@H](O)[C@H]1O [methyl β-D-galactopyranoside]

Molecule: (β-D-gal-O(CH2)8 CONH)24 -BSA [antigen 12]
maximum amount of antibody precipitated [5]: 396 µg | Antibody levels upon completion of the schedule (average) [10]: 277 μg per 50 μl sera
